Data published in US20160206592A1, “METHOD FOR TREATING AMYOTROPHIC LATERAL SCLEROSIS BY INHIBITION OF CXCR4/CXCL12 SIGNALING” (RAMOT AT TEL-AVIV UNIVERSITY LTD., priority 2013, published 2016).
Read-outs that look alike come from different tables or passages of the source.

Key:
[1] = test system: NSC-34 cells stably transfected with mutant SOD1; details: 25 ug AMD3100, astrocytes from newborn SODG93A mice incubated 24 h, compared to other concentrations
Procedure: Primary astrocytes from 3 days old newborn SODG93A mice were incubated AMD3100 for 24 h. Media of treated astrocytes was then added to NSC-34 cells stably transfected with mutant SOD1.

activated microglia = details: female SODG93A mice, 5 mg/kg s.c. twice a week from 50 days old, sacrificed at 110 days old
Procedure: 50 days old female SODG93A mice were s.c injected with 5 mg/kg AMD3100 twice a week. On 110 days old mice were sacrificed and analyzed using western blot for inflammatory markers of activated microglia. FIG. 7A. is cd36 levels. FIG. 7B. is Iba-1 levels.
Loss of upper and lower MNs results in progressive muscle paralysis and ultimately death due to respiratory failure. Although initially thought to derive from the selective loss of MNs, the pathogenic concept of non-cell autonomous disease has come to the fore front for the contribution of glial cells in ALS, in particular microglia. […] Conversely, activated microglia contributes and enhances MN death by secreting neurotoxic factors, and impaired microglial function at the end-stage may instead accelerate disease progression. However, the nature of microglial-neuronal interactions that lead to MN degeneration remains elusive.

[2] = test system: ZO-1, claudin 5, Occludin; details: female SODG93A mice, 5 mg/kg s.c. twice a week from 50 days old, sacrificed at 110 days old
Procedure: FIGS. 9A-9C show Blood-CNS-Barrier markers levels following AMD3100 treatment. 50 days old female SODG93A mice were s.c injected with 5 mg/kg AMD3100 twice a week. On 110 days old mice were sacrificed and analyzed for B-CNS-B markers using western blot.
Endothelial cells play an important role in B-CNS-B function. B-CNS-B dysfunction is recognized to participate in neurodegenerative disorders. […] TJPs such as ZO-1, occludin and the claudin family exist in cerebral vascular endothelial cells, which are the most crucial factors modulating barrier integrity. […] The expression of TJPs has been reported to contribute to barrier function. ZO-1 and claudin-5 are the most important components for cell barrier integrity. Claudin-5 can greatly reduce dextran permeability and improve transendothelial electrical resistance and plays an essential role in the earliest stage of CNS angiogenesis. ZO-1 serves as a bridge between transmembrane proteins and skeleton proteins, and this interaction is important to the stability and function of endothelial barrier. […] All these three proteins are known to be reduced by 40%-60% in both animal models of ALS and humans, even prior to disease onset (Zhong et al., 2008).

transgenic G93A mice = details: G93A female mice, s.c. once and twice a week
Description: Six mice received AMD3100 once a week, eight mice received AMD3100 twice a week, and seven mice received PBS once a week.
For this purpose, the present inventors treated G93A female mice subcutaneously with either AMD3100 or PBS, starting at 70 days old. Six mice received AMD3100 once a week, eight mice received AMD3100 twice a week, and seven mice received PBS once a week.

[3] = test system: SOD1-G93A female and male mice
Procedure: FIGS. 4A-4C are graphs showing survival (Kaplan-Meier curves; P-value=0.0001) of SOD1-G93A female and male mice subcutaneously treated with either 5 mg/kg AMD3100 or PBS, starting at 50 days old; N=29 (AMD3100), N=16 (PBS).

[4] = females only, 5 mg/kg twice a week
[5] = males and females together, 5 mg/kg s.c., starting at 50 days old
[6] = males only, 5 mg/kg twice a week

In the case of `c1cc(CN2CCCNCCNCCCNCC2)ccc1CN1CCCNCCNCCCNCC1` [AMD3100, 1,1′-[1,4-Phenylenebis(methylene)]bis-1,4,8,11-tetraazacyclotetradecane], the “survival of motor neuron like cells” value [1] is reported as “increased the survival”, the Iba-1 levels (activated microglia) is reported as “significant reduction” and the cd36 levels (activated microglia) is reported as “significant reduction”. The Occludin levels [2] was “effective in restoring the expression”, the ZO-1 levels [2] was “effective in restoring the expression” and the “claudin 5 levels” value [2] was “effective in restoring the expression”. For the same compound, the “extension of survival compared with control (PBS) mice” value (transgenic G93A mice) was “about 14 days”, the age at death (transgenic G93A mice; starting at 70 days old) was roughly 170 days old and the mean survival [3, 4] was 146 days. The median survival [3, 4] was 144 days, the “survival (versus PBS)” value [3, 4] was 14 days and the mean survival [3, 5] was 144 days. The median survival [3, 5] was 143 days, the “survival according to Kaplan-Meier curve (versus PBS)” value [3, 5] was 12 days and the mean survival [3, 6] was 141 days. The median survival [3, 6] was 139 days and the “survival (versus PBS)” value [3, 6] was 8 days.
